In patent US20210238176A1, “PESTICIDALLY-ACTIVE BICYCLIC HETEROAROMATIC COMPOUNDS” (SYNGENTA CROP PROTECTION AG, priority 2018, published 2021):

Experiments:
Assay type in all cases: in vivo
[1] = test system: Myzus persicae (Green Peach Aphid); assay: Myzus persicae (green peach aphid) feeding/contact activity, sunflower leaf discs; conditions: foliar, 144 h, application rate 200 ppm, aphid population of mixed ages, 6 days after infestation
Procedure: Myzus persicae (Green Peach Aphid): Feeding/Contact Activity
Sunflower leaf discs were placed onto agar in a 24-well microtiter plate and sprayed with aqueous test solutions prepared from 10,000 ppm DMSO stock solutions. After drying, the leaf discs were infested with an aphid population of mixed ages. The samples were assessed for mortality 6 days after infestation.

[2] = test system: Myzus persicae (Green Peach Aphid); assay: Myzus persicae systemic activity, pea seedling roots in test solution; conditions: 144 h, test rate 24 ppm, systemic via pea seedling roots, 6 days
Procedure: Myzus persicae (Green Peach Aphid). Systemic Activity
Roots of pea seedlings infested with an aphid population of mixed ages were placed directly into aqueous test solutions prepared from 10,000 ppm DMSO stock solutions. The samples were assessed for mortality 6 days after placing seedlings into test solutions.

[3] = test system: Myzus persicae (Green Peach Aphid); assay: Myzus persicae intrinsic activity, sucrose solution under Parafilm; conditions: 120 h, test rate 12 ppm, 5 days after infestation
Text: Myzus persicae (Green Peach Aphid). Intrinsic Activity
Test compounds prepared from 10,000 ppm DMSO stock solutions were applied by pipette into 24-well microtiter plates and mixed with sucrose solution. The plates were closed with a stretched Parafilm. A plastic stencil with 24 holes was placed onto the plate and infested pea seedlings were placed directly on the Parafilm. The infested plate was closed with a gel blotting paper and another plastic stencil and then turned upside down. The samples were assessed for mortality 5 days after infestation.

[4] = test system: neonicotinoid-resistant Myzus persicae; assay: Myzus persicae (neonicotinoid-resistant) mixed population, contact, pea seedlings; conditions: 120 h, neonicotinoid-resistant strain on pea seedlings, 5 days after treatment, read-out: control (mortality)
Procedure: Myzus persicae (Green Peach Aphid—Neonicotinoid-Resistant), Mixed Population, Contact
Pea seedlings infested with a mixed-aged neonicotinoid-resistant Myzus persicae population were treated with diluted test solutions in a spray chamber and checked for mortality 5 days after treatment.

[5] = test system: neonicotinoid-resistant Myzus persicae; assay: Myzus persicae (neonicotinoid-resistant) mixed population, contact/feeding, pepper plants; conditions: 120 h, neonicotinoid-resistant strain on pepper plants, 5 days after treatment, read-out: control (mortality)
Procedure: Myzus persicae (Neonicotinoid-Resistant, Green Peach Aphid), Mixed Population, Contact/Feeding.
Pepper plants were infested with mixed aged neonicotinoid-resistant aphid population and were treated 1 day after infestation with diluted test solutions in a spray chamber. 5 days after treatment, samples were assessed for mortality.

[6] = test system: Bemisia tabaci (Cotton White Fly); assay: Bemisia tabaci (cotton white fly) feeding/contact activity, cotton leaf discs; conditions: foliar, 144 h, application rate 200 ppm, adult white flies, 6 days after incubation
Procedure: Bemisia tabaci (Cotton White Fly): Feeding/Contact Activity
Cotton leaf discs were placed on agar in 24-well microtiter plates and sprayed with aqueous test solutions prepared from 10,000 ppm DMSO stock solutions. After drying the leaf discs were infested with adult white flies. The samples were checked for mortality 6 days after incubation.

[7] = test system: neonicotinoid-resistant Bemisia tabaci; assay: Bemisia tabaci (metabolic neonicotinoid-resistant) adult, cotton leaf discs; conditions: foliar, 96 h, 4 days after infestation, read-out: control (% adult mortality)
Procedure: Bemisia tabaci (Neonicotinoid-Resistant, Cotton Whitefly-Metabolic Neonicotinoid-Resistant), Adult.
5 cm cotton leaf discs were placed upside down in petri dishes poured out with 11 mL 0.8% water agar and applied in a turntable spraying chamber. After drying of the spray deposits, leaf discs were infested with 10 adult neonicotinoid-resistant Bemisia tabaci. Dishes were covered with a fabric filter and sealed with a perforated plastic lid. Evaluation was made 4 days after infestation on % adult mortality.

[8] = test system: Nilaparvata lugens (Brown Plant Hopper, metabolic neonicotinoid-resistant); assay: Nilaparvata lugens (metabolic neonicotinoid-resistant) larvicide, feeding/contact, rice plants; conditions: 168 h, N3 nymphs, neonicotinoid-resistant strain, 7 days after treatment, read-out: control (mortality and growth regulation)
Procedure: Nilaparvata lugens (Brown Plant Hopper—Metabolic Neonicotinoid-Resistant), Larvicide, Feeding/Contact
Rice plants were treated with the diluted test solutions in a spray chamber. After drying, the plants were infested with ˜20 N3 nymphs. 7 days after the treatment, samples were assessed for mortality and growth regulation.

O=c1nc2n(Cc3ccc(Cl)nc3)cccc-2n1-c1cncc(F)c1 [Compound A26, 4-[(6-chloro-3-pyridyl)methyl]-1-(5-fluoro-3-pyridyl)imidazo[4,5-b]pyridin-2-one]
≥ 80%: mortality at 200 ppm [1] | mortality at 24 ppm [2] | mortality at 12 ppm [3] | mortality at 200 ppm [4]

Cc1ccc(-n2c3cccn(Cc4ccc(Cl)nc4)c-3nc2=O)cc1 [Compound A30, 4-[(6-chloro-3-pyridyl)methyl]-1-(p-tolyl)imidazo[4,5-b]pyridin-2-one]
≥ 80%: mortality at 200 ppm [1] | mortality at 12 ppm [3] | mortality at 200 ppm [4]

CCn1cc(-n2c3cccn(Cc4ccc(Cl)nc4)c-3nc2=O)cn1 [Compound A63, 4-[(6-chloro-3-pyridyl)methyl]-1-(1-ethylpyrazol-4-yl)imidazo[4,5-b]pyridin-2-one]
≥ 80%: mortality at 200 ppm [5] | mortality at 200 ppm [1] | mortality at 12 ppm [3] | mortality at 200 ppm [6] | mortality at 200 ppm [7]

Cc1c(-n2c3cccn(Cc4ccc(Cl)nc4)c-3nc2=O)cnn1C [Compound A92, 4-[(6-chloro-3-pyridyl)methyl]-1-(1,5-dimethylpyrazol-4-yl)imidazo[4,5-b]pyridin-2-one]
≥ 80%: mortality at 200 ppm [5] | mortality at 200 ppm [1] | mortality at 24 ppm [2] | mortality at 200 ppm [8] | mortality at 12 ppm [3] | mortality at 200 ppm [6]

O=c1nc2n(Cc3ccc(Cl)nc3)cccc-2n1-c1cnn(C2CC2)c1 [Compound A93, 4-[(6-chloro-3-pyridyl)methyl]-1-(1-cyclopropylpyrazol-4-yl)imidazo[4,5-b]pyridin-2-one]
≥ 80%: mortality at 200 ppm [5] | mortality at 200 ppm [1] | mortality at 24 ppm [2] | mortality at 200 ppm [8] | mortality at 12 ppm [3] | mortality at 200 ppm [6]
